Data reported in US20190008797A1, “ESTROGEN RECEPTOR ALPHA COLIGANDS, AND METHODS OF USE THEREOF” (priority 2016, published 2019).
“Also recorded” adds a separate entry of the source. Read-outs that look alike come from different tables or passages of the source.

How the values were obtained:
MCF-7 cells [1] = experiment: ERE-TK-Luc transfection assay in MCF-7 cells; settings: 1, 5 or 10 μM + 10 nM E2
ERα = ERα (Homo sapiens, UniProt P03372); experiment: NKG2E-TK-Luc transfection assay, U2OS cells cotransfected with ERα; type: cell-based; parameters: expressed in transfected cells; host or cells: U2OS
Sequence of ERα (P03372 whole entry): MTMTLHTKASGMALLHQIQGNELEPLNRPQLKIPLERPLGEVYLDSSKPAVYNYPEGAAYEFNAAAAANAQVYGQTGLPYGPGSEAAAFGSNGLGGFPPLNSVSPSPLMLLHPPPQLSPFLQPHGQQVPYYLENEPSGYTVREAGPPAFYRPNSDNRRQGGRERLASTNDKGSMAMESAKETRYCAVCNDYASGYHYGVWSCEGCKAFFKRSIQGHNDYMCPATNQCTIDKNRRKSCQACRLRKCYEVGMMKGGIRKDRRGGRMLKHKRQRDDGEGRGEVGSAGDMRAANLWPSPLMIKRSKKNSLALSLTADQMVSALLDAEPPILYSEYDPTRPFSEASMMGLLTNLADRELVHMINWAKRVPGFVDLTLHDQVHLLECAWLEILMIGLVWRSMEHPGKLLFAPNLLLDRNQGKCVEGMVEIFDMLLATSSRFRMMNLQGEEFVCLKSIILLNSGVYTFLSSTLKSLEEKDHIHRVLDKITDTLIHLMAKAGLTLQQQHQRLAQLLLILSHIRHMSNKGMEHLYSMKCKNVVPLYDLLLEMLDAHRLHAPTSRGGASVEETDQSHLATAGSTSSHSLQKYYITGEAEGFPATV
Description: FIG. 7a-7e. […] (C) U2OS cells cotransfected with GRE-TK-Luc and human (h) GR and treated with 10 nM of dexamethasone (Dex) and 5 μM of 2′, 3′, 4′-THC alone or in combination for 24 hours. (D) U2OS cells cotransfected with human tyrosine aminotransferase (TATS)-luciferase reporter gene and hAR and treated with 10 nM of dihydrotestosterone (DHT) and 5 μM of 2′, 3′, 4′-THC alone or in combination for 24 hours. (E) U2OS cells cotransfected with TAT3-luciferase reporter gene and hPR-B and treated with 10 nM of progesterone (Prog) and 5 μM of 2′, 3′, 4′-THC alone or in combination for 24 hours. After transfection, luciferase activities were measured as described in the Methods. RLU is relative light units and the data shown are mean±SEM.
(§1) (FIGS. 6a, 6b) Gene expression of (FIG. 6a) KRT73 and (FIG. 6b) NKG2E in U2OS-ERα cells treated with 10 nM estradiol, 5 μM 2′, 3′, 4′-THC, 1μM ICI alone or in combination for 24 hours. […] Error bars are ±SEM. […] After transfection, luciferase activities were measured as described in the Methods. RLU is relative light units and the data shown are mean ±SEM. (FIG. 6c). […] After transfection, luciferase activities were measured as described in the Methods. RLU is relative light units and the data shown are mean ±SEM (FIG. 6d).

NKG2E promoter = experiment: ChIP of ERα and SRC-2 at the NKG2E promoter in U2OS-ERα cells; type: cell-based, human; settings: 2′,3′,4′-THC/E2 combination, 2 hr
Description: Cells were fixed with 11X formaldehyde solution for 10 minutes at 37° C. and the reaction was quenched for 2 minutes with 1.25M glycine solution as previously described (Cvoro, A., et al. Distinct Roles of Unliganded and Liganded Estrogen Receptors in Transcriptional Repression. Mol Cell 21, 555-564 (2006)). Cells were washed and collected in collecting buffer (100 mM Tris-HCl pH 9.4 and 10 mM dithiothreitol (DTT)) supplemented with a protease inhibitor cocktail. Pellets were frozen overnight at −80° C. then were thawed on ice and lysed (50 mM Tris pH 7.4, 150 mM NaCl, 10 mM ethylenediaminetetraacetic acid (EDTA), 0.5 mM ethylene glycol tetraacetic acid (EGTA), 0.5% Triton™ X-100 and 1X protease inhibitor cocktail). Cell lysates were centrifuged and cell pellet was resuspended in RIPA buffer. Samples were sonicated and supernatant was collected. Approximately 5% of each sample was taken for input and stored at 4° C. Immune complexes were collected using magnetic sepharose beads (GE Healthcare, Pittsburgh, Pa.) equilibrated in radioimmunoprecipitation assay (RIPA) buffer. Complexes were collected over a period of 3 to 4 hours rotating at 4° C. […]
FIGS. 2a-2f2′, 3′, 4′-THC behaves as a unique coagonist on gene expression in U2OS-ERα cells. […] Expression was assessed by up regulation or down regulation of 3-fold or more and a P-value≤0.05. […]

purified ERα = purified ERα (Homo sapiens, UniProt P03372); experiment: Fluorescent polarization with purified ERα; type: binding
Sequence of purified ERα (P03372 whole entry): as above

U2OS-ERα cells = experiment: Real-time PCR of unique genes FGR, KCNK6, KRT73 in U2OS-ERα cells; type: cell-based, human; settings: E2 in combination with 5 μM 2′,3′,4′-THC, 24 hrs
Description: Expression was assessed by up regulation or down regulation of 3-fold or more and a P-value≤0.05. […] Error bars are ±SEM.
as §1

MCF-7 cells [2] = experiment: KRT19 mRNA RT-QPCR in MCF-7 cells; settings: 5 μM + 10 nM E2, 4 hours
MCF-7 cells [3] = experiment: Flow cytometry of cellular DNA content in MCF-7 cells; type: cell-based, human; settings: for IC50: Homo sapiens, MCF7, 24 h
Description: The cells were then washed with PBS, detached with trypsin and collected by centrifugation. The cell pellets were washed with cold PBS followed by centrifuge at room temperature and re-suspended in 500 μl PBS containing […] propidium iodide, 0.1% of Triton™ X-100, 0.1% of sodium citrate, and 10 μg/ml of RNase. Samples were then run on Cytomics™ FC-500 (Beckman Coulter) in the cell cytometry facility at UC Berkeley and data was analyzed using FlowJo 7.6.5.

## O=C(/C=C/c1ccccc1)c1ccc(O)c(O)c1O [2′, 3′, 4′-THC, 2′, 3′, 4′-trihydroxychalcone]
MCF-7 cells [1]
  E2 activation of ERE-TK-Luc: dose-dependent synergistic increase
ERα; 1 μM 2′,3′,4′-THC
  response of NKG2E-TK-Luc with E2: synergistic response
ERα; 5 μM 2′,3′,4′-THC
  response of NKG2E-TK-Luc with E2: maximal response
ERα; 5 μM, 10 nM E2, 1 μM tamoxifen, 1 μM raloxifene, 24 hours
  synergistic activation of NKG2E-TK-Luc in combination with E2, tamoxifen or raloxifene: synergistic activation only with E2
ERα; 24 hours
  activation of NKG2E-TK-Luc, compound alone: No activation
NKG2E promoter
  recruitment of ERα to the NKG2E promoter: increased recruitment
  recruitment of SRC-2 to the NKG2E promoter: increased recruitment
Purified ERα
  IC50 relative to E2 (higher): approximately 10,000 fold
U2OS-ERα cells
  E2 dose at which FGR expression was induced: 0.1 nM
  E2 dose at which KCNK6 expression was induced: 1 nM
  E2 dose at which KRT73 expression was induced: 1 nM
MCF-7 cells [2]
  effect on E2 activation of the KRT19 gene: did not have a significant effect
MCF-7 cells [3]; 24 hours
  effect on E2-treated cells by DNA content / cell cycle: anti-proliferative action; also recorded: G1 cell cycle arrest
MCF-7 cells [3]; read-out: IC50 for inhibition, G1 phase (cellular DNA content)
  IC50: 2.9 µM
MCF-7 cells [3]; read-out: IC50 for inhibition, S-phase (cellular DNA content)
  IC50: 2.6 µM
